According to article PMC3534021, “Structure of the TPR Domain of AIP: Lack of Client Protein Interaction with the C-Terminal α-7 Helix of the TPR Domain of AIP Is Sufficient for Pituitary Adenoma Predisposition” (PLoS ONE, 2012):
Each block holds one compound with its values, some of them ahead of it. Where no end group is shown, it is not given here.

Experiments:
[1] = target: T1, AIP TPR-domain R304A mutant (Homo sapiens, UniProt O00170, R304A); test: Isothermal titration calorimetry, R304A AIP TPR-domain; assay type: binding; conditions: ITC, 20 mM Tris pH 7.5, 5 mM NaCl, 30°C, peptide 350-600 µM injected into 30 µM TPR-domain
T1 construct: The TPR domain (residues 166–330) of human AIP; His tag (PreScission cleavable) (cleaved yes); made in house
T1 sequence (O00170 166-330 R304A): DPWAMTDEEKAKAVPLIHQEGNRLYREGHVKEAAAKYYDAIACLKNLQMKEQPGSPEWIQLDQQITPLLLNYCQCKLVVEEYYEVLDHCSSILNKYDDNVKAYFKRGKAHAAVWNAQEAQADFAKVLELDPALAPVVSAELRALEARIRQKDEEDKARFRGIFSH
Experimental: (§1) The TPR domain (residues 166–330) of human AIP was expressed as a PreScission cleavable His-tagged protein from pTWO-E (pET-17b derived; personal communication, A. W. Oliver, Sussex University). The TPR domain was purified by talon-affinity chromatography (Clontech, Oxford, UK), then concentrated and desalted on a HIPrep 26/10 desalting column equilibrated in 20 mM Tris pH 7.5 containing 1 mM EDTA. The sample was then cleaved overnight with GST-tagged PreScision protease. The cleaved protein was subsequently passed through a GST column equilibrated in 20 mM Tris pH 7.5, 1 mM EDTA and 150 mM NaCl and then through a second Talon column to remove any remaining uncleaved protein. The flow through was then concentrated and subjected to superdex 75HR gel-filtration chromatography equilibrated in 20 mM Tris pH 7.5, 1 mM EDTA, 1 mM DTT and 500 mM NaCl. Pure TPR domain were concentrated and then desalted on a HIPrep 26/10 column equilibrated in 20 mM Tris pH 7.5 containing 1 mM EDTA. The protein was stored frozen at 2 mg ml^−1.
(§2) The heat of interaction was measured on an ITC200 microcalorimeter (Microcal), with a cell volume of 200 µL, under the same buffer conditions (20 mM Tris, pH 7.5, containing 5 mM NaCl) at 30°C. Twenty 1.9 µL aliquots of AIP TPR-domain at 350 µM were injected into 30 µM of human HSP90β. For peptide interactions twenty 1.9 µL aliquots of peptide ranging from 350 to 600 µM were injected into 30 µM of AIP TPR-domain. Heats of dilution were determined in a separate experiment by diluting protein or peptide into buffer, and the corrected data were fitted using a non-linear least-squares curve-fitting algorithm (Microcal Origin) with three floating variables: stoichiometry, binding constant and change in enthalpy of interaction. ATPase assays were previously described [44]–[46].

[2] = target: T2, AIP TPR-domain R304Q mutant (Homo sapiens, UniProt O00170, R304Q); test: Isothermal titration calorimetry, R304Q AIP TPR-domain; assay type: binding; conditions: ITC, 20 mM Tris pH 7.5, 5 mM NaCl, 30°C, peptide 350-600 µM injected into 30 µM TPR-domain
T2 construct: The TPR domain (residues 166–330) of human AIP; His tag (PreScission cleavable) (cleaved yes); made in house
T2 sequence (O00170 166-330 R304Q): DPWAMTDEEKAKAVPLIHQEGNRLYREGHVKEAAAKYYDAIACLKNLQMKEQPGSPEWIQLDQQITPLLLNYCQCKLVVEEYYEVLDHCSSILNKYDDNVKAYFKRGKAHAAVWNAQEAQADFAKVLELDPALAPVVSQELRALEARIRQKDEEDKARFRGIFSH
Experimental: as §1, §2

full-length human HSP90β = target: T3, full-length human HSP90β (human, UniProt P08238 1-724); test: ITC; twenty 1.9 µL aliquots of AIP TPR-domain at 350 µM injected into 30 µM human HSP90β; 20 mM Tris pH 7.5, 5 mM NaCl, 30°C
T3 construct: HSP90β, human, full length; also called FL-hHSP90β; intact HSP90

[3] = target: T4, TPR domain (residues 166–330) of human AIP, WT (Homo sapiens, UniProt O00170); test: Isothermal titration calorimetry, wild-type AIP TPR-domain; assay type: binding; conditions: ITC; for N (stoichiometry): first value where two are printed
T4 construct: The TPR domain (residues 166–330) of human AIP; His tag (PreScission cleavable) (cleaved yes); made in house
T4 sequence (O00170 166-330): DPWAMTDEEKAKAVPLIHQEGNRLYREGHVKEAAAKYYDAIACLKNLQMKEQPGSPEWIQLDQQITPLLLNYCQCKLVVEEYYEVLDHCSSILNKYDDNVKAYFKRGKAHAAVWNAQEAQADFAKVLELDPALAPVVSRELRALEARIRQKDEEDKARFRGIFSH
Experimental: as §1, §2

[4] = target: AIP TPR-domain E192R mutant; test: Isothermal titration calorimetry, E192R AIP TPR-domain; assay type: binding, human; conditions: ITC, 20 mM Tris pH 7.5, 5 mM NaCl, 30°C, 350 µM AIP TPR injected into 30 µM HSP90β
Experimental: as §1, with “Pure TPR domain were concentrated and then desalted on a HIPrep 26/10 column equilibrated in 20 mM Tris pH 7.5 containing 1 mM EDTA. The protein was stored frozen at 2 mg ml^−1.” left out
The heat of interaction was measured on an ITC200 microcalorimeter (Microcal), with a cell volume of 200 µL, under the same buffer conditions (20 mM Tris, pH 7.5, containing 5 mM NaCl) at 30°C. […] Heats of dilution were determined in a separate experiment by diluting protein or peptide into buffer, and the corrected data were fitted using a non-linear least-squares curve-fitting algorithm (Microcal Origin) with three floating variables: stoichiometry, binding constant and change in enthalpy of interaction. […]

AIP = conditions: cited from earlier work
From the text: Recently, mutations in aryl hydrocarbon receptor interacting protein (AIP), [2] have been linked to familial isolated pituitary adenomas (FIPA) [3]–[5], a condition most often characterized by young-onset growth hormone and prolactin-secreting pituitary tumors (reviewed by), which leads to acromegaly and gigantism. The human AIP gene encodes a 37 kDa protein of 330 amino acids that, based on similarities to other proteins, is predicted to have an N-terminal immunophilin-like domain [7] and a C-terminal tetratricopeptide repeat (TPR) domain. Typically, TPR domains consist of ...

[5] = 20 mM Tris pH 7.5, 5 mM NaCl, 30°C

T3 sequence (P08238 whole entry): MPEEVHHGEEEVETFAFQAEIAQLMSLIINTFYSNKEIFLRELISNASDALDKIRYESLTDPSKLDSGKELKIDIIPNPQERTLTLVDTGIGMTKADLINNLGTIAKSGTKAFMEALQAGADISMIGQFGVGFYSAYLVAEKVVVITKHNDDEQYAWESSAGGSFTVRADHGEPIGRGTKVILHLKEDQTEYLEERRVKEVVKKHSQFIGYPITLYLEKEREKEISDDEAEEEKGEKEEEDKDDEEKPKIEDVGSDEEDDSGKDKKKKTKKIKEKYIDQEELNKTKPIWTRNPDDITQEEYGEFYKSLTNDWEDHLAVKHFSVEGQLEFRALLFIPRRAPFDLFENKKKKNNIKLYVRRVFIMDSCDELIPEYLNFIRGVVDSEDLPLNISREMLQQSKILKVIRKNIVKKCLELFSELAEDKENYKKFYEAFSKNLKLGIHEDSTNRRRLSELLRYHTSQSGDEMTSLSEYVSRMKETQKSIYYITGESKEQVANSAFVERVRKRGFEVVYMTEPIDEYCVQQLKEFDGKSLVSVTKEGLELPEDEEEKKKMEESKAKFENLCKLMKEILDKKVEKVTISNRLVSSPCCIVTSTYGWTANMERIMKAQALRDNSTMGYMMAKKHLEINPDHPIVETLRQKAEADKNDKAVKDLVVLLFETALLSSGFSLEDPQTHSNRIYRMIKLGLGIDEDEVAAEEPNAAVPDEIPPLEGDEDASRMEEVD

Compound: FL-hHSP90β: full-length human HSP90β chaperone protein
ΔH [3, 5]: -4.554 kcal/mol | ΔS [3, 5]: 7.29 Cal/mol/deg | N (stoichiometry) ([3]; 20 mM Tris pH 7.5, 5 mM NaCl, 30°C, for HSP90β given as AIP:HSP90): 0.30 | N (stoichiometry) ([3]; 20 mM Tris pH 7.5, 5 mM NaCl, 30°C, for HSP90β given as AIP:HSP90, listed as HSP90β): 0.3 | Kd ([3]; 20 mM Tris pH 7.5, 5 mM NaCl, 30°C, peptide 350-600 µM injected into 30 µM AIP TPR-domain (for HSP90β: 350 µM AIP TPR into 30 µM HSP90β)): 13.3 ± 1.8 µM | Kd [4]: 11.1 ± 1.3 µM

Compound: CSCC[C@H](NC(=O)[C@H](CCCNC(=N)N)NC(=O)[C@H](CO)NC(=O)[C@H](C)NC(=O)[C@H](CC(=O)O)NC(=O)[C@@H](N)CCC(=O)O)C(=O)N[C@@H](CCC(=O)O)C(=O)N[C@@H](CCC(=O)O)C(=O)N[C@H](C(=O)N[C@@H](CC(=O)O)C(=O)O)C(C)C [EDASRMEEVD]
Kd ([3]; range of the two titrations as given in the text): 14.4 to 18.6 µM | Kd [1]: 15.6 ± 0.85 µM | Kd [2]: 16.2 ± 1.1 µM

Compound: C=CC[C@@H]1/C=C(\C)C[C@H](C)C[C@H](OC)[C@H]2O[C@@](O)(C(=O)C(=O)N3CCCC[C@H]3C(=O)O[C@H](/C(C)=C/[C@@H]3CC[C@@H](O)[C@H](OC)C3)[C@H](C)[C@@H](O)CC1=O)[C@H](C)C[C@@H]2OC [FK506]
Binding to AIP (AIP): does not bind

Compound: AQSLAEDDVE [AQSLAEDDVE]
Kd [1]: 16.6 ± 0.5 µM | Kd [2]: 22.5 ± 2.2 µM

Compound: CO[C@H]1C[C@@H]2CC[C@@H](C)[C@@](O)(O2)C(=O)C(=O)N2CCCC[C@H]2C(=O)O[C@H]([C@H](C)C[C@@H]2CC[C@@H](O)[C@H](OC)C2)CC(=O)[C@H](C)/C=C(\C)[C@@H](O)[C@@H](OC)C(=O)[C@H](C)C[C@H](C)/C=C/C=C/C=C/1C [rapamycin]
Binding to AIP (AIP): does not bind

Next, values leading:

Kd [1]: 22.8 ± 1.6 µM | Kd [2]: 31.1 ± 2.6 µM
Compound: CC[C@H](C)[C@H](NC(=O)[C@@H](NC(=O)[C@@H]1CCCN1C(=O)CNC(=O)[C@H](CO)NC(=O)CN)[C@@H](C)O)C(=O)N[C@@H](CCC(=O)O)C(=O)N[C@@H](CCC(=O)O)C(=O)N[C@H](C(=O)N[C@@H](CC(=O)O)C(=O)O)C(C)C [GSGPTIEEVD]

Kd (full-length human HSP90β): 11.1 µM | dH (full-length human HSP90β): -4.11 kcal/mol | stoichiometry N (full-length human HSP90β): 0.47
Compound: TPR domain of human AIP, E192R mutant (domain or fragment)
